# Measured values reported in patent US6468476B1, “Methods for using-co-regulated genesets to enhance detection and classification of gene expression patterns” (Rosetta Inpharmatics, Inc., priority 1998, dated 2002).
# Tested on: genes regulated by the Gcn4 transcription factor
# Assay: Transcript response (DNA microarray) to a titration series of FK506, genes of the Gcn4 geneset
# Format: cell-based, Saccharomyces cerevisiae
# Experimental: Yeast (Saccharomyces cerevisiae, Strain YPH499, see, Sikorski and Hieter, 1989, A system of shuttle vectors and yeast host strains designated for efficient manipulation of DNA in Saccharomyces cerevisiae, Genetics 122:19-27) cells were grown in YAPD at 30° C. to an OD600 of 1.0 (±0.2), and total RNA prepared by breaking cells in phenol/chloroform and 0.1% SDS by standard procedures (Ausubel et al., 1995, Current Protocols in Molecular Biology, Greene Publishing and Wiley-Interscience, New York, Ch. 13). Poly(A)^+ RNA was selected by affinity chromatography on oligo-dT cellulose (New England Biolabs) essentially as described in Sambrook et al. (Molecular Cloning—A Laboratory Manual (2nd Ed.), Vol. 1, Cold Spring Harbor Laboratory, Cold Spring Harbor, N.Y., 1989). First strand cDNA synthesis was carried out with 2 μg poly(A)^+ RNA and SuperScript™ II reverse transcriptase (Gibco-BRL) according to the manufacturer's instructions with the following modifications. Deoxyribonucleotides were present at the following concentrations: dA, dG, and dC at 500 μM each, dT at 100 μM and either Cy3-dUTP or Cy5-dUTP (Amersham) at 100 μM. cDNA synthesis reactions were carried out at 42-44° C. for 90 minutes, after which RNA was degraded by the addition of 2 units of RNAse H, and the cDNA products were purified by two successive rounds of centrifugation dialysis using MICROCON-30 microconcentrators (Amicon) according to the manufacturer's recommendations.
# Double-stranded DNA polynucleotides corresponding in sequence to each ORF in the S. cerevisiae genome encoding a polypeptide greater than 99 amino acids (based on the published yeast genomic sequence, e.g., Goffeau et al., 1996, Science 274:546-567) are made by polymerase chain reaction (PCR) amplification of yeast genomic DNA. Two PCR primers are chosen internal to each of the ORFs according to two criteria: (i) the amplified fragments are 300-800 bp and (ii) none of the fragments have a section of more than 10 consecutive nucleotides of sequence in common. Computer programs are used to aid in the design of the PCR primers. Amplification is carried out in 96 well microtitre plates. The resulting DNA fragments are printed onto glass microscope slides using the method of Shalon et al., 1996, Genome Research 6:639-645.
# Fluorescently-labeled cDNAs (2-6 μg) are resuspended in 4×SSC plus 1 μg/μl tRNA as carrier and filtered using […] filters (Millipore, Bedford, Mass.). SDS is added to 0.3%, prior to heating to 100° C. for 2 minutes. Probes are cooled and immediately hybridized to the microarrays produced as described in Example 6.2, for 4 hours at 65° C. Non-hybridized probe is removed by washing in 1×SSC plus 0.1% SDS at ambient temperature for 1-2 minutes. Microarrays are scanned with a fluorescence laser-scanning device as previously described (Schena et al., 1995, Science 270:467-470; Schena et al., 1995, Proc. Natl. Acad. Sci. USA 93:[…]) and the results (including the positions of perturbations) are recorded.
# Geneset number 3 in the clustering analysis result of FIG. 6 involves genes regulated by the Gcn4 transcription factor. This was verified via the literature and via multiple sequence alignment analysis of the regulatory regions 5′ to the individual genes (Stormo and Hartzell, 1989, Identifying protein binding sites from unaligned DNA fragments, Proc Natl Acad Sci 86:1183-1187; Hertz and Stormo, 1995, Identification of consensus patterns in unaligned DNA and protein sequences: a large-deviation statistical basis for penalizing gaps, Proc of 3rd Intl Conf on Bioinformatics and Genome Research, Lim and Cantor, eds., World Scientific Publishing Co., Ltd. Singapore, pp. 201-216). […] These 20 were used to define a geneset. Response profiles to a titration series of the drug FK506, which is known to hit this pathway at higher concentrations, were projected onto this geneset. […]
smiles,measurement,setting,value
C=CC[C@@H]1/C=C(\C)C[C@H](C)C[C@H](OC)[C@H]2O[C@@](O)(C(=O)C(=O)N3CCCC[C@H]3C(=O)O[C@H](/C(C)=C/[C@@H]3CC[C@@H](O)[C@H](OC)C3)[C@H](C)[C@@H](O)CC1=O)[C@H](C)C[C@@H]2OC [FK506],Geneset Average response (projected response of the 20-gene Gcn4 geneset),FK506 7.5 μg/ml,7.8209 standard deviations of Log10(Expression Ratio)
same,Response of gene ARG1,FK506 7.5 μg/ml,4.2215 standard deviations of Log10(Expression Ratio)
same,Response of gene ARG4,FK506 7.5 μg/ml,3.2973 standard deviations of Log10(Expression Ratio)
same,"Response of gene ARG5,6",FK506 7.5 μg/ml,2.7433 standard deviations of Log10(Expression Ratio)
same,Response of gene ARO3,FK506 7.5 μg/ml,0.6059 standard deviations of Log10(Expression Ratio)
same,Response of gene ECM13,FK506 7.5 μg/ml,2.5343 standard deviations of Log10(Expression Ratio)
same,Response of gene HIS3,FK506 7.5 μg/ml,1.8024 standard deviations of Log10(Expression Ratio)
same,Response of gene HIS5,FK506 7.5 μg/ml,2.8414 standard deviations of Log10(Expression Ratio)
same,Response of gene MET16,FK506 7.5 μg/ml,0.1621 standard deviations of Log10(Expression Ratio)
same,Response of gene NCE3,FK506 7.5 μg/ml,1.569 standard deviations of Log10(Expression Ratio)
same,Response of gene PCL5,FK506 7.5 μg/ml,2.2898 standard deviations of Log10(Expression Ratio)
same,Response of gene SNO1,FK506 7.5 μg/ml,2.538 standard deviations of Log10(Expression Ratio)
same,Response of gene SNZ1,FK506 7.5 μg/ml,2.538 standard deviations of Log10(Expression Ratio)
same,Response of gene SSU1,FK506 7.5 μg/ml,0.5059 standard deviations of Log10(Expression Ratio)
same,Response of gene YBR047W,FK506 7.5 μg/ml,1.1596 standard deviations of Log10(Expression Ratio)
same,Response of gene YER024W,FK506 7.5 μg/ml,1.1526 standard deviations of Log10(Expression Ratio)
same,Response of gene YGL117W,FK506 7.5 μg/ml,2.699 standard deviations of Log10(Expression Ratio)
same,Response of gene YGL184C,FK506 7.5 μg/ml,−0.4586 standard deviations of Log10(Expression Ratio)
same,Response of gene YHR029C,FK506 7.5 μg/ml,2.3813 standard deviations of Log10(Expression Ratio)
same,Response of gene YMR195W,FK506 7.5 μg/ml,0.8879 standard deviations of Log10(Expression Ratio)
same,Geneset Average response (projected response of the 20-gene Gcn4 geneset),FK506 16 μg/ml,19.9913 standard deviations of Log10(Expression Ratio)
same,Response of gene ARG1,FK506 16 μg/ml,4.711 standard deviations of Log10(Expression Ratio)
same,Response of gene ARG4,FK506 16 μg/ml,4.5135 standard deviations of Log10(Expression Ratio)
same,"Response of gene ARG5,6",FK506 16 μg/ml,6.0457 standard deviations of Log10(Expression Ratio)
same,Response of gene ARO3,FK506 16 μg/ml,4.0553 standard deviations of Log10(Expression Ratio)
same,Response of gene CPA2,FK506 16 μg/ml,4.1093 standard deviations of Log10(Expression Ratio)
same,Response of gene ECM13,FK506 16 μg/ml,4.8689 standard deviations of Log10(Expression Ratio)
same,Response of gene HIS3,FK506 16 μg/ml,4.6461 standard deviations of Log10(Expression Ratio)
same,Response of gene HIS5,FK506 16 μg/ml,6.0052 standard deviations of Log10(Expression Ratio)
same,Response of gene MET16,FK506 16 μg/ml,3.3857 standard deviations of Log10(Expression Ratio)
same,Response of gene NCE3,FK506 16 μg/ml,5.5819 standard deviations of Log10(Expression Ratio)
same,Response of gene PCL5,FK506 16 μg/ml,5.4688 standard deviations of Log10(Expression Ratio)
same,Response of gene SNO1,FK506 16 μg/ml,5.8877 standard deviations of Log10(Expression Ratio)
same,Response of gene SNZ1,FK506 16 μg/ml,5.8877 standard deviations of Log10(Expression Ratio)
same,Response of gene SSU1,FK506 16 μg/ml,4.6461 standard deviations of Log10(Expression Ratio)
same,Response of gene YBR047W,FK506 16 μg/ml,3.3107 standard deviations of Log10(Expression Ratio)
same,Response of gene YER024W,FK506 16 μg/ml,4.6342 standard deviations of Log10(Expression Ratio)
same,Response of gene YGL117W,FK506 16 μg/ml,4.9827 standard deviations of Log10(Expression Ratio)
same,Response of gene YGL184C,FK506 16 μg/ml,2.7166 standard deviations of Log10(Expression Ratio)
same,Response of gene YHR029C,FK506 16 μg/ml,5.0446 standard deviations of Log10(Expression Ratio)
same,Response of gene YMR195W,FK506 16 μg/ml,4.0983 standard deviations of Log10(Expression Ratio)
same,Geneset Average response (projected response of the 20-gene Gcn4 geneset),FK506 50 μg/ml,21.3315 standard deviations of Log10(Expression Ratio)
same,Response of gene ARG1,FK506 50 μg/ml,5.7996 standard deviations of Log10(Expression Ratio)
same,Response of gene ARG4,FK506 50 μg/ml,5.8858 standard deviations of Log10(Expression Ratio)
same,"Response of gene ARG5,6",FK506 50 μg/ml,5.2406 standard deviations of Log10(Expression Ratio)
same,Response of gene ARO3,FK506 50 μg/ml,5.7035 standard deviations of Log10(Expression Ratio)
same,Response of gene CPA2,FK506 50 μg/ml,4.0958 standard deviations of Log10(Expression Ratio)
same,Response of gene ECM13,FK506 50 μg/ml,3.1882 standard deviations of Log10(Expression Ratio)
same,Response of gene HIS3,FK506 50 μg/ml,5.2637 standard deviations of Log10(Expression Ratio)
same,Response of gene HIS5,FK506 50 μg/ml,4.9557 standard deviations of Log10(Expression Ratio)
same,Response of gene MET16,FK506 50 μg/ml,4.855 standard deviations of Log10(Expression Ratio)
same,Response of gene NCE3,FK506 50 μg/ml,3.3928 standard deviations of Log10(Expression Ratio)
same,Response of gene PCL5,FK506 50 μg/ml,5.2339 standard deviations of Log10(Expression Ratio)
same,Response of gene SNO1,FK506 50 μg/ml,5.5665 standard deviations of Log10(Expression Ratio)
same,Response of gene SNZ1,FK506 50 μg/ml,5.5665 standard deviations of Log10(Expression Ratio)
same,Response of gene SSU1,FK506 50 μg/ml,3.5782 standard deviations of Log10(Expression Ratio)
same,Response of gene YBR047W,FK506 50 μg/ml,4.248 standard deviations of Log10(Expression Ratio)
same,Response of gene YER024W,FK506 50 μg/ml,5.8934 standard deviations of Log10(Expression Ratio)
same,Response of gene YGL117W,FK506 50 μg/ml,5.9066 standard deviations of Log10(Expression Ratio)
same,Response of gene YGL184C,FK506 50 μg/ml,5.3106 standard deviations of Log10(Expression Ratio)
same,Response of gene YHR029C,FK506 50 μg/ml,5.5781 standard deviations of Log10(Expression Ratio)
same,Response of gene YMR195W,FK506 50 μg/ml,4.6141 standard deviations of Log10(Expression Ratio)
